Assay results as given in ChEMBL document CHEMBL3616429, “Chemical structure and biological activity of a quorum sensing pheromone from Bacillus subtilis subsp. natto” (2015).
Calls of active or inactive are those of the source. The rule behind the calls is not given here. *1 amine or outer side, *2 acyl side, *3 side chain or, on linkers, in order; H or OH if unused. Where a SMILES comes first, the peptide text is derived from it. [ ]: non-standard residue; d: D form. X1 = CC(C)=CCC/C(C)=C/CC/C(C)=C/C[C@]12C[C@@H](C(=O)[*:2])N([*:1])[C@@H]1Nc1ccccc12

Columns and labels:
Format in all cases: functional
[1] = test system: Bacillus subtilis; test: Induction of poly-gamma-glutamic acid production in Bacillus subtilis subsp. natto at >1 nM incubated for 72 hrs at 37 degC by ultra-filtration method
[2] = test system: Bacillus subtilis; test: Induction of poly-gamma-glutamic acid production in Bacillus subtilis subsp. natto at 100 nM incubated for 72 hrs at 37 degC by ultra-filtration method
[3] = test system: Bacillus subtilis; test: Induction of poly-gamma-glutamic acid production in Bacillus subtilis subsp. natto at 10 nM incubated for 72 hrs at 37 degC by ultra-filtration method
[4] = test system: Bacillus subtilis; test: Induction of poly-gamma-glutamic acid production in Bacillus subtilis subsp. natto at 1000 nM incubated for 72 hrs at 37 degC by ultra-filtration method

CC[C@H](C)[C@H](NC(=O)[C@@H]1CCCN1C(=O)[C@@H]1CCCN1C(=O)[C@@H]1C[C@]2(C/C=C(\C)CC/C=C(\C)CCC=C(C)C)c3ccccc3N[C@H]2N1C(=O)[C@@H](N)CCCCN)C(=O)N[C@@H](CCC(=O)O)C(=O)O (H-K[X1]PPIE-OH)
Activity [1]: Active | fold change (FC) [2]: 2 | Activity [3]: Active

H-KWPPIE-OH
Activity [4]: inactive
